One data set has as its target GppNp-KRAS G12V (Homo sapiens, UniProt P01116, G12V). As to the kind of experiment: GTP-K-Ras and cRAF interaction assay, GppNp-KRAS G12V. To be noted: read-out: Biochemical assays, IC50, KRAS G12V GppNp; GppNp-loaded K-Ras G12V, cRAF RBD interaction, HTRF.
Chain of GppNp-KRAS G12D (P01116 1-169 isoform P01116-2 G12D): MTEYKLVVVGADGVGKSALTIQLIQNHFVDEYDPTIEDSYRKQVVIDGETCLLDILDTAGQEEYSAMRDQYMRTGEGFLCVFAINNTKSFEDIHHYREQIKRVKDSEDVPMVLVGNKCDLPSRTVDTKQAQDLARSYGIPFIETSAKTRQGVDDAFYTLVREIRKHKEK
Chain of GppNp-KRAS G12V (P01116 1-169 isoform P01116-2 G12V): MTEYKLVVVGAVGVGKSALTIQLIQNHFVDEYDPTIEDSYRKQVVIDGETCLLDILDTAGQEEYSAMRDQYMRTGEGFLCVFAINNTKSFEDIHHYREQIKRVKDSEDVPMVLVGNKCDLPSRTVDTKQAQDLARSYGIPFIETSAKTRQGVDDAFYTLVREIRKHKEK
Chain of GDP-KRAS G12V (P01116 1-169 isoform P01116-2 G12V): as above
`C#Cc1c(F)ccc2cc(N)cc(-c3nc4c5c(nc(OC[C@@]67CCCN6C[C@H](F)C7)nc5c3F)N3[C@@H](COCC[C@@H]3C)CO4)c12` [Compound 38A]: the IC50 amounted to 75.6 nM.
Same read-out and setting: to `C#Cc1c(F)ccc2cc(N)cc(-c3nc4c5c(nc(OCC67CCCN6CC(F)C7)nc5c3F)N3CCCCC(F)C3N4C)c12` (stereo not shown) [Compound 40B] belongs 705 nM; to `C#Cc1c(F)ccc2cc(N)cc(-c3nc4c5c(nc(OC[C@@]67CCCN6C[C@H](F)C7)nc5c3F)N3CC(C)COCC3N4C)c12` (single isomer, unassigned) [Compound 103], 101 nM.
The same measure, in the same setting: as for `C#Cc1c(F)ccc2cc(N)cc(-c3c(Cl)c4c5c(nc(OCC67CCCN6CC(F)C7)nc5c3F)N3CCCOCC3CO4)c12` (single isomer, unassigned) [Compound 11B], the figure is 311 nM; as for `C#Cc1c(F)ccc2cc(N)cc(-c3nc4c5c(nc(OCC67CCCN6CC(F)C7)nc5c3F)N3CCCCCC3CO4)c12` (stereo not shown) [Compound 27B], 563 nM.

In a further data set the test system is AsPC-1 cells (K-Ras G12D).
Assay: not given
Details: not given
`C#Cc1c(F)ccc2cc(N)cc(-c3nc4c5c(nc(OC[C@@]67CCCN6C[C@H](F)C7)nc5c3F)N3[C@@H](COCC[C@@H]3C)CO4)c12` [Compound 38A] registered an IC50 of 28.7 nM.
On the same count and under the same terms, to `C#Cc1c(F)ccc2cc(N)cc(-c3nc4c5c(nc(OC[C@@]67CCCN6C[C@H](F)C7)nc5c3F)N3CC(C)COCC3N4C)c12` (single isomer, unassigned) [Compound 103] belongs 180 nM.
Same read-out and setting: to `C#Cc1c(F)ccc2cc(N)cc(-c3c(Cl)c4c5c(nc(OCC67CCCN6CC(F)C7)nc5c3F)N3CCCOCC3CO4)c12` (single isomer, unassigned) [Compound 11B] belongs 806 nM; to `C#Cc1c(F)ccc2cc(N)cc(-c3nc4c5c(nc(OCC67CCCN6CC(F)C7)nc5c3F)N3CCCCCC3CO4)c12` (stereo not shown) [Compound 27B], 110 nM.

The next data set addresses GDP-KRAS G12V (Homo sapiens, UniProt P01116, G12V). As to the kind of experiment: SOS1 catalyzed nucleotide exchange assay, GDP-KRAS G12V. To be noted: read-out: Biochemical assays, IC50, KRAS G12V GDP, GDP form K-Ras G12V, TR-FRET.
As to `C#Cc1c(F)ccc2cc(N)cc(-c3nc4c5c(nc(OC[C@@]67CCCN6C[C@H](F)C7)nc5c3F)N3[C@@H](COCC[C@@H]3C)CO4)c12` [Compound 38A], the IC50 was determined as 0.292 nM.
The same measure, in the same setting: as for `C#Cc1c(F)ccc2cc(N)cc(-c3nc4c5c(nc(OCC67CCCN6CC(F)C7)nc5c3F)N3CCCCC(F)C3N4C)c12` (stereo not shown) [Compound 40B], the figure is 7.01 nM; as for `C#Cc1c(F)ccc2cc(N)cc(-c3nc4c5c(nc(OC[C@@]67CCCN6C[C@H](F)C7)nc5c3F)N3CC(C)COCC3N4C)c12` (single isomer, unassigned) [Compound 103], 1.79 nM; as for `C#Cc1c(F)ccc2cc(N)cc(-c3c(Cl)c4c5c(nc(OCC67CCCN6CC(F)C7)nc5c3F)N3CCCOCC3CO4)c12` (single isomer, unassigned) [Compound 11B], 3.92 nM.
Regarding `C#Cc1c(F)ccc2cc(N)cc(-c3nc4c5c(nc(OCC67CCCN6CC(F)C7)nc5c3F)N3CCCCCC3CO4)c12` (stereo not shown) [Compound 27B], the IC50 worked out at 2.69 nM.

A further data set has as its target GppNp-KRAS G12D (Homo sapiens, UniProt P01116, G12D). As to the kind of experiment: GTP-K-Ras and cRAF interaction assay, GppNp-KRAS G12D. To be noted: read-out: Biochemical assays, IC50, KRAS G12D GppNp; GppNp-loaded K-Ras G12D, cRAF RBD interaction, HTRF.
Regarding `C#Cc1c(F)ccc2cc(N)cc(-c3nc4c5c(nc(OC[C@@]67CCCN6C[C@H](F)C7)nc5c3F)N3[C@@H](COCC[C@@H]3C)CO4)c12` [Compound 38A], the IC50 stood at 51.9 nM.
Regarding `C#Cc1c(F)ccc2cc(N)cc(-c3nc4c5c(nc(OCC67CCCN6CC(F)C7)nc5c3F)N3CCCCC(F)C3N4C)c12` (stereo not shown) [Compound 40B], the IC50 worked out at 162 nM.
The same measure, in the same setting: to `C#Cc1c(F)ccc2cc(N)cc(-c3nc4c5c(nc(OC[C@@]67CCCN6C[C@H](F)C7)nc5c3F)N3CC(C)COCC3N4C)c12` (single isomer, unassigned) [Compound 103] belongs 214 nM; to `C#Cc1c(F)ccc2cc(N)cc(-c3c(Cl)c4c5c(nc(OCC67CCCN6CC(F)C7)nc5c3F)N3CCCOCC3CO4)c12` (single isomer, unassigned) [Compound 11B], 233 nM.
In the case of `C#Cc1c(F)ccc2cc(N)cc(-c3nc4c5c(nc(OCC67CCCN6CC(F)C7)nc5c3F)N3CCCCCC3CO4)c12` (stereo not shown) [Compound 27B], the IC50 was determined as 174 nM.

For a further data set, the system named is SW620 cells (K-Ras G12V). The data set is described as follows: Phospho-ERK1/2(THR202/TYR204) HTRF assay, SW620. The class given is cell-based. The conditions noted are these: 2 hours incubation, read-out: pERK, IC50, SW620.
Experimental: Each of cells in culture medium was seeded in 96-well plates at density indicated in Table 4 and put in a cell incubator to incubate overnight. The next day, the culture medium was removed and the compound diluted in assay medium was added in each well. […] 10 μL of cell lysates from the 96-well plates were transferred to a 384-well plate (Greiner) containing 2.5 μL/well HTRF® pre-mixed antibodies (Cisbio 64AERPEH). The plate was incubated 4 hours at 25° C. and read HTRF signals on Tecan Spark multimode microplate reader. The data were analyzed using a 4-parameter logistic model to calculate IC50 values.
Take `C#Cc1c(F)ccc2cc(N)cc(-c3nc4c5c(nc(OC[C@@]67CCCN6C[C@H](F)C7)nc5c3F)N3[C@@H](COCC[C@@H]3C)CO4)c12` [Compound 38A]: the IC50 came to 0.648 nM.
Still for that read-out and setting: as for `C#Cc1c(F)ccc2cc(N)cc(-c3nc4c5c(nc(OC[C@@]67CCCN6C[C@H](F)C7)nc5c3F)N3CC(C)COCC3N4C)c12` (single isomer, unassigned) [Compound 103], the figure is 10.1 nM; as for `C#Cc1c(F)ccc2cc(N)cc(-c3c(Cl)c4c5c(nc(OCC67CCCN6CC(F)C7)nc5c3F)N3CCCOCC3CO4)c12` (single isomer, unassigned) [Compound 11B], 53.5 nM.
Still for that read-out and setting: as for `C#Cc1c(F)ccc2cc(N)cc(-c3nc4c5c(nc(OCC67CCCN6CC(F)C7)nc5c3F)N3CCCCCC3CO4)c12` (stereo not shown) [Compound 27B], the figure is 12.4 nM.

Test system in another data set: not listed separately
The data set is described as follows: Mouse pharmacokinetic study. In kind it is in vivo. The conditions noted are these: Balb/c mouse (female), 3 mg/kg, iv, plasma. The method, then: The purpose of this study was to evaluate the pharmacokinetic properties of compounds in Balb/c mouse (female) following single dose administration. Six mice were needed for each compound and the six mice were divided into two groups (n=3/group), group A and group B. Mice in group A were treated with a single 3 mg/kg dose of compound (iv). Mice in group B were treated with a single 10 mg/kg dose of compound (po). Foreach mouse in group A, blood samples were collected at the time point of 0.083 h 0.5 h, 1 h, 2 h, 4 h, 8 h and 24 h post-dose. For each mouse in group B, blood samples were collected at the time point of 0.25 h, 0.5 h, 1 h, 2 h, 4 h, 8 h and 24 h post-dose. Blood samples were placed on ice until centrifugation to obtain plasma samples. The plasma samples were stored at −80° C. until analysis. The concentration of compound in plasma samples was determined using a LC-MS/MS method.
For `C#Cc1c(F)ccc2cc(N)cc(-c3nc4c5c(nc(OC[C@@]67CCCN6C[C@H](F)C7)nc5c3F)N3[C@@H](COCC[C@@H]3C)CO4)c12` [Compound 38A], the AUC0-24 h amounted to 4004 ng·h/mL and the Cl_obs worked out at 12.7 mL/min/kg.

The same data set, now with this note: Balb/c mouse (female), 10 mg/kg po vs 3 mg/kg iv.
For `C#Cc1c(F)ccc2cc(N)cc(-c3nc4c5c(nc(OC[C@@]67CCCN6C[C@H](F)C7)nc5c3F)N3[C@@H](COCC[C@@H]3C)CO4)c12` [Compound 38A], the F stood at 39.1%.

Still in this data set, the particulars now being: Balb/c mouse (female), 10 mg/kg, po, plasma.
`C#Cc1c(F)ccc2cc(N)cc(-c3nc4c5c(nc(OC[C@@]67CCCN6C[C@H](F)C7)nc5c3F)N3[C@@H](COCC[C@@H]3C)CO4)c12` [Compound 38A] yielded an AUC0-24 h of 5213 ng·h/mL and a Cmax of 971 ng/mL.

The next data set relates to SW620 cells (K-Ras G12V).
Assay: not given
Details: not given
Molecule `C#Cc1c(F)ccc2cc(N)cc(-c3nc4c5c(nc(OC[C@@]67CCCN6C[C@H](F)C7)nc5c3F)N3[C@@H](COCC[C@@H]3C)CO4)c12` [Compound 38A] displayed an IC50 of 2.64 nM.
On the same count and under the same terms, as for `C#Cc1c(F)ccc2cc(N)cc(-c3nc4c5c(nc(OC[C@@]67CCCN6C[C@H](F)C7)nc5c3F)N3CC(C)COCC3N4C)c12` (single isomer, unassigned) [Compound 103], the figure is 14.5 nM.
On the same count and under the same terms, as for `C#Cc1c(F)ccc2cc(N)cc(-c3c(Cl)c4c5c(nc(OCC67CCCN6CC(F)C7)nc5c3F)N3CCCOCC3CO4)c12` (single isomer, unassigned) [Compound 11B], the figure is 117 nM; as for `C#Cc1c(F)ccc2cc(N)cc(-c3nc4c5c(nc(OCC67CCCN6CC(F)C7)nc5c3F)N3CCCCCC3CO4)c12` (stereo not shown) [Compound 27B], 16.9 nM.

For another data set, the target named is GDP-KRAS G12D (Homo sapiens, UniProt P01116, G12D). As to the kind of experiment: SOS1 catalyzed nucleotide exchange assay, GDP-KRAS G12D. To be noted: read-out: Biochemical assays, IC50, KRAS G12D GDP, GDP form K-Ras G12D, TR-FRET.
Chain of GDP-KRAS G12D (P01116 1-169 isoform P01116-2 G12D): as the sequence (P01116 1-169 isoform P01116-2 G12D) above
For `C#Cc1c(F)ccc2cc(N)cc(-c3nc4c5c(nc(OC[C@@]67CCCN6C[C@H](F)C7)nc5c3F)N3[C@@H](COCC[C@@H]3C)CO4)c12` [Compound 38A], the IC50 was 0.46 nM.
As for `C#Cc1c(F)ccc2cc(N)cc(-c3nc4c5c(nc(OCC67CCCN6CC(F)C7)nc5c3F)N3CCCCC(F)C3N4C)c12` (stereo not shown) [Compound 40B], the IC50 was 1.55 nM.
The same measure, in the same setting: as for `C#Cc1c(F)ccc2cc(N)cc(-c3nc4c5c(nc(OC[C@@]67CCCN6C[C@H](F)C7)nc5c3F)N3CC(C)COCC3N4C)c12` (single isomer, unassigned) [Compound 103], the figure is 3.45 nM.
Regarding `C#Cc1c(F)ccc2cc(N)cc(-c3c(Cl)c4c5c(nc(OCC67CCCN6CC(F)C7)nc5c3F)N3CCCOCC3CO4)c12` (single isomer, unassigned) [Compound 11B], the IC50 stood at 5.69 nM.
Same read-out and setting: as for `C#Cc1c(F)ccc2cc(N)cc(-c3nc4c5c(nc(OCC67CCCN6CC(F)C7)nc5c3F)N3CCCCCC3CO4)c12` (stereo not shown) [Compound 27B], the figure is 2.51 nM.

Source of the values: patent publication US20260200947A1, “FUSED CYCLIC COMPOUNDS AND USE THEREOF” (Jacobio Pharmaceuticals Co., Ltd., priority 2022, published 2026).
